# Data as given in patent publication US20260224538A1 (Purdue Research Foundation, priority 2023, published 2026).
# Tests used:
# α-syn [1] = target: T1, α-syn (Homo sapiens, UniProt P37840); assay: Photo-induced cross-linking of unmodified proteins (PICUP), α-syn oligomerization; type: biochemical; conditions: compound 50 μM, molar ratio 1:5 (protein:compound)
# T1 construct: purchased rPeptide
# Method: (§1) Photo-induced Cross-linking of Unmodified Proteins (PICUP) Assay. To induce oligomerization by cross-linking, α-syn (from Rpeptide, LLC) and tau isoform 2N4R were diluted in 10 mM phosphate buffer (pH 7.4) to reach a final concentration of 10 μM. Different compounds were added to the protein solution at a final concentration of 50 μM, resulting in a molar ratio of 1:5. To confirm the gradual effect of the compounds on the inhibition of α-syn oligomerization, the compounds were tested at final concentrations of 3.125, 6.25, 12.5, 25, and 50 μM. The controls consisted of samples without light exposition, without Ru(bpy) or ammonium persulfate, and without compound (i.e., 0.125% DMSO). The cross-linking reaction was initiated by the addition of 2 μL of Ru(bpy) (300 μM final concentration) and 2 μL ammonium persulfate (6 mM final concentration). Samples were irradiated immediately. Light exposure was of a one-second duration for α-syn and a three-second duration for tau isoform 2N4R, with a 53 W (120 V) incandescent lamp installed in a homemade dark-box. Each tube contained a final volume of 20 μL. After irradiation, 8.3 μL of Laemmli loading buffer containing 15% β-mercaptoethanol were immediately added to the solution, followed by incubation at 95° C. for 10 minutes. The cross-linked samples were separated on a 16% SDS-PAGE gel and visualized by Coomassie blue staining.
# [2] = system: M17D neuroblastoma cells that express inclusion-prone αS-3K::YFP; assay: α-Syn inclusion-forming neuroblastoma cell experiment; type: cell-based; conditions: 40 μM; t=96 hours
# Method: α-Syn (or αS) inclusion-forming neuroblastoma cell experiment. Dox-inducible neuroblastoma cells M17D-TR/αS-3K::YFP have been used previously. 96-well plates were used with a cellular density of 30,000 cells per well. Compounds were added […], and αS-3K::YFP transgene expression was induced […]. Induction was done by adding 1 μg per mL (final concentration) dox to culture media. Cells were incubated in the Incucyte Zoom 2000 platform (Essen Biosciences), and images (green, bright field) were taken continuously. Endpoint analysis of inclusion formation or growth was performed 48 hours after induction (96 hours after plating). The Incucyte processing definition ‘Inclusions’ was created as follows: Parameters, Fixed Threshold, Threshold (GCU) 50; Edge Split On, Edge Sensitivity 100; Cleanup, Hole Fill (μm^2): 10, Adjust Size (pixels): 0; Filters, Area (μm^2): max 50, Mean Intensity: min 60, Integrated Intensity: min 2000. Cell confluence was measured by the processing definition ‘Cells’: Parameters, Segmentation Adjustment 0.7; Cleanup, all parameters set to 0; Filters, Area (μm^2): min 345.00. As described previously for the evaluation of protein expression by SDS-PAGE and Western Blotting in the LiCor system, αS-specific monoclonal antibody 4B12 (Thermofisher, Waltham, MA; 1:1000) and a polyclonal antibody to GAPDH (Sigma-Aldrich, St. Louis, MO, G9545; 1:5000) were used.
# TTR81-127 = target: T2, TTR81-127 (Homo sapiens, UniProt P02766); assay: TEM of TTR81-127 fibrils; type: biochemical; conditions: compound 100 μM, TTR81-127 10 μM, sodium acetate buffer pH 4
# T2 construct: TTR fragment 81-127 was obtained from AnaSpec; purchased AnaSpec; host or cells: synthetic peptide
# TTR101-125 = target: T3, TTR101-125 (Homo sapiens, UniProt P02766); assay: ThT fluorescence assay of TTR101-125 fibril formation; type: biochemical
# T3 construct: TTR fragments 1-25, 26-50, 51-75, 76-100, 81-105, 101-125, and 101-125 were obtained from GenScript; purchased GenScript; host or cells: synthetic peptide
# Method: (§2) Thioflavin-T (ThT) fluorescence assays. Thioflavin-T (ThT) fluorescence assays were used to monitor fibril formation of recombinant Ap (fragments 1-40 and 1-42), recombinant α-syn, recombinant tau isoform 2N4R, synthetic IAPP, and synthetic TTR peptides treated with BTA and its derivatives. The IAPP ThT assay was performed in 10 mM PBS (pH 7.4) at a final concentration of 10 μM for both IAPP and ThT as published previously. Aβ fragments 1-40 and 1-42 were tested at 7 μM in 10 mM of PBS using ThT at a final concentration of 20 μM. Kinetics of α-syn fibrillization were performed as published previously.^36-37 TTR fragment kinetics of fibril formation were assessed at 10 μM in 100 mM sodium acetate buffer supplemented with 100 mM KCl and 1 mM ethylenediaminetetraacetic acid (EDTA) (pH 4) with 20 μM ThT. The fluorescence emission experiments were performed with the excitation and emission wavelengths set at 440 and 485 nm, respectively, with a Synergy HT multi-mode microplate reader (BioTek, Winooski, VT). Samples were measured in three replicates, and the experiments were repeated three times using at least two different stock solutions. For each time point, arbitrary units of fluorescence were calculated from the mean values normalized against the maximum value in each completed assay. The lag time for each condition was calculated as previously described. All results contained in histograms were presented as mean±SEM. Data were analyzed by the one-way analysis of variance with Dunnett's multiple comparisons between controls and compounds. Differences were considered statistically significant at p<0.05.
# Aβ1-42 = target: T4, Aβ1-42 (Homo sapiens, UniProt P05067); assay: ThT fluorescence assay of Aβ1-42 fibril formation; type: biochemical; conditions: screen on prone-to-aggregate proteins (FIG. 2A, FIG. 4A); Aβ 7 μM
# T4 construct: α-syn, Aβ1-40, Aβ1-42 were procured from rPeptide; purchased rPeptide
# T4 sequence (P05067 672-713 limits assumed): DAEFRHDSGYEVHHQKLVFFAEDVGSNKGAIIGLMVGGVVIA
# Method: as §2
# [3] = target: T5, transthyretin fragment peptide (TTR81-127) (Homo sapiens, UniProt P02766); assay: ThT fluorescence assay of TTR81-127 fibril formation; type: biochemical; conditions: for TTR81-127 fibril formation (ThT): compound 100 μM, molar ratio 1:10; for remaining activity at 100 µM: compounds at 100 μM, TTR81-127 10 μM, control 0.25% DMSO, read-out: ThT TTR81-127 (%), maximum thioflavin T (ThT) intensity in percentage
# T5 construct: TTR fragment 81-127 was obtained from AnaSpec; purchased AnaSpec; host or cells: synthetic peptide
# Method: as §2
# IAPP = target: T6, IAPP (Homo sapiens, UniProt P10997); assay: TEM of IAPP fibrils; type: biochemical; conditions: compound 100 μM, IAPP 10 μM, PBS
# T6 construct: Human islet amyloid polypeptide (IAPP) was procured from AnaSpec; purchased AnaSpec; host or cells: synthetic peptide
# T6 sequence (P10997 34-70 limits assumed): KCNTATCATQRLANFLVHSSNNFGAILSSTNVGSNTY
# Method: (§3) Transmission electron microscopy (TEM). After performing analysis with ThT fluorescence assay, TEM was utilized to detect fibril formation. A volume of 10 μL was applied to a 400-mesh Formvar-carbon-coated copper grid (Electron Microscopy Sciences, Hatfield, PA). The grids were incubated for 1 minute and washed three times with distilled water. They were carefully air-dried and incubated for 1 minute in a fresh solution of 1% uranyl acetate. Samples were air-dried and observed using a transmission microscope. Visualization of the grids was performed with TEM (JEOL 1400 Flash, Japan). Acquisition of pictures was performed with settings of accelerating voltage of 100 kV and magnification of 25 k and/or 40 k.
# tau isoform 2N4R [4] = target: T7, tau isoform 2N4R (Homo sapiens, UniProt P10636); assay: PICUP, tau isoform 2N4R oligomerization; type: biochemical; conditions: compound 50 μM
# T7 construct: made in house; host or cells: E. coli BL21(DE3)
# T7 sequence (P10636 1-441 isoform P10636-8): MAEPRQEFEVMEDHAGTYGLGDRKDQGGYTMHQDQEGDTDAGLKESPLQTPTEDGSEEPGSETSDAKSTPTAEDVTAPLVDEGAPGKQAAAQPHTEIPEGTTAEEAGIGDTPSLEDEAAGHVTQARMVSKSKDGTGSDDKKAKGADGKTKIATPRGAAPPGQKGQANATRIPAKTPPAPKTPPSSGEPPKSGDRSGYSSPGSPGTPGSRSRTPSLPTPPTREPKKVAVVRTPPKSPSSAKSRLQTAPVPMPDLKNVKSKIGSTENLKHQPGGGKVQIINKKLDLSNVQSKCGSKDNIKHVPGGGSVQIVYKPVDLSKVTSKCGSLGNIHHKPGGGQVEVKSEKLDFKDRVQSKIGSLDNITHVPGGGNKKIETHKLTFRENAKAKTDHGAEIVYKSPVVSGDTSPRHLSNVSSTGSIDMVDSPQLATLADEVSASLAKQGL
# Method: (§4) The bacterial expression plasmid consisting of the vector pRK172 carrying a cDNA encoding the human Tau 2N4R isoform was obtained from Dr. David Eliezer (Weill Cornell Medicine, New York, NJ). For protein expression, E. coli BL21(DE3) cells were transformed with the plasmid and grown in LB media supplemented with ampicillin (100 μg/mL). Protein over-expression was induced by the addition of 1 mM IPTG for 4 hours at 37° C., and cells were pelleted by centrifugation at 6,000 g for 15 minutes at 4° C. The cells were resuspended in lysis buffer (20 mM MES, 400 mM NaCl, 0.2 mM MgCl2, 1 mM EGTA, protease inhibitor cocktail (P8340, Sigma Aldrich), 0.25 mg/mL lysozyme, and 1 μg/mL DNase 1, pH 6.8) and lysed by a French press cell disruptor at 4° C., after which the lysate was boiled for 20 minutes. Denatured proteins were pelleted by centrifugation at 30,000 g for 30 minutes at 4° C., and the supernatant was dialyzed overnight against cation exchange buffer (20 mM MES, 50 mM NaCl, 1 mM MgCl2, 1 mM EGTA, 2 mM DTT, 0.1 mM PMSF, pH 6.8). The dialysate was loaded onto a HiPrep SP HP column, and proteins were eluted with a linear gradient ranging from 50 mM to 1 M NaCl. Fractions containing tau isoform 2N4R were pooled, and the resulting protein solution was dialyzed against PBS (pH 7.4) and stored at −80° C.
# as §1
# α-syn [5] = target: T1, α-syn; assay: Transmission electron microscopy (TEM) of α-syn fibrils; type: biochemical; conditions: compound 100 μM
# Method: as §3
# α-synuclein (α-syn) = target: T8, α-synuclein (α-syn) (Homo sapiens, UniProt P37840); assay: Thioflavin-T (ThT) fluorescence assay of α-syn fibril formation; type: biochemical; conditions: compounds at 100 μM, α-syn 6.25 μM, control 0.25% DMSO; for remaining activity at 100 µM: read-out: ThT a-Syn (%), maximum thioflavin T (ThT) intensity in percentage
# T8 construct: purchased rPeptide
# Method: as §2
# (§5) Compounds with the highest anti-fibrillary activity were tested at 3.125, 6.25, 12.5, 25, 50, and 100 μM to obtain dose-response curves with prepared α-syn and 2N4R tau at 6.25 μM and 6 μM, respectively. Compounds were tested with α-syn using a previously published procedure. Concerning the tau (isoform 2N4R) kinetics of fibril formation, measurements of ThT fluorescence were performed with a solution of the protein diluted to a final concentration of 6 μM in PBS (pH 7.4) supplemented with 1.5 μM heparin, 20 μM ThT, 2.5 mM DTT, and 100 μM compound. Aliquots of the diluted protein solution (100 μL each) were pipetted into the wells of a 96-well plate, and a Teflon ball was added to each well. The plate was incubated at 37° C. with constant shaking at 1,000 rpm in a Tecan Spark plate reader. ThT fluorescence was measured every 15 minutes with excitation and emission wavelengths of 440 nm and 480 nm, and the data were plotted using GraphPad Prism.
# tau isoform 2N4R [6] = target: T7, tau isoform 2N4R; assay: ThT kinetics of tau isoform 2N4R fibril formation; type: biochemical; conditions: tau 6 μM, compound 100 μM
# Method: as §4, §5
# [7] = compound 100 μM, molar ratio 1:10
smiles,measurement,setting,value
"Nc1ccc(-c2nc3ccccc3s2)cc1 [BTA, 4-(2-benzothiazolyl)aniline, reference compound]",α-syn oligomer formation (PICUP),α-syn [1],not successful in preventing oligomerization
same,cell confluence,[2],reduction in confluence
same,number of αS-3K::YFP inclusions,[2],did not affect the number of inclusions
same,TTR81-127 fibrils by TEM,TTR81-127,reduced fibril formation
same,TTR101-125 fibril formation (ThT),"TTR101-125; compound 25 μM, molar ratio 1:2.5",continued to reduce TTR101-125 fibrils
same,TTR101-125 fibril formation (ThT),TTR101-125; [7],reduced fibril formation
same,"thioflavin T fluorescence intensity, Aβ1-42",Aβ1-42,22.59±0.71%
same,TTR81-127 fibril formation (ThT),[3],reduced fibril formation
same,IAPP fibrils by TEM,IAPP,no such branching was observed
same,tau isoform 2N4R oligomer formation (PICUP),tau isoform 2N4R [4],not successful in preventing oligomerization
same,α-syn fibrils by TEM,α-syn [5],no such branching was observed
"CC(=O)c1ccc(NC(=S)Nc2ccc(-c3nc4ccccc4s3)cc2)cc1 [Compound 2, 1-(4-acetylphenyl)-3-[4-(1,3-benzothiazol-2-yl)phenyl]thiourea]",TTR101-125 fibril formation (ThT),"TTR101-125; compound 50 μM, molar ratio 1:5",weak in inhibiting TTR101-125 fibril formation
same,TTR101-125 fibril formation (ThT),TTR101-125; [7],"to a lesser extent, compound 2 reduced fibril formation"
same,TTR81-127 fibril formation (ThT),[3],"to a lesser extent, compound 2 reduced fibril formation"
"O=[N+]([O-])c1ccc2snc(Nc3nc(Cl)nc(Cl)n3)c2c1 [Compound 6, N-(4,6-dichloro-1,3,5-triazin-2-yl)-5-nitro-1,2-benzothiazol-3-amine]",remaining activity at 100 µM,α-synuclein (α-syn),> 100%
same,remaining activity at 100 µM,[3],82.6 ± 6%
"O=[N+]([O-])c1ccc2snc(Nc3ncnc(Cl)n3)c2c1 [Compound 7, N-(4-chloro-1,3,5-triazin-2-yl)-5-nitro-1,2-benzothiazol-3-amine]",remaining activity at 100 µM,α-synuclein (α-syn),> 100%
same,remaining activity at 100 µM,[3],> 100%
"O=C(Cc1ccccc1)Nc1nsc2ccc([N+](=O)[O-])cc12 [Compound 8, N-(5-nitro-1,2-benzothiazol-3-yl)-2-phenylacetamide]",remaining activity at 100 µM,α-synuclein (α-syn),> 100%
same,remaining activity at 100 µM,[3],95.2 ± 1.2%
O=C(Cc1cccs1)Nc1nsc2ccc([N+](=O)[O-])cc12 [Compound 9],remaining activity at 100 µM,α-synuclein (α-syn),> 100%
same,remaining activity at 100 µM,[3],69 ± 0.1%
"CC(=O)Nc1nsc2ccc([N+](=O)[O-])cc12 [Compound 10, N-(5-nitro-1,2-benzothiazol-3-yl)acetamide]",production of tau isoform 2N4R fibrils (ThT kinetic aggregation curves),tau isoform 2N4R [6],reduced the production of tau isoform 2N4R fibrils
same,"ThT a-Syn (%), maximum thioflavin T (ThT) intensity in percentage",α-synuclein (α-syn),55.6 ± 3.2%
same,remaining activity at 100 µM,α-synuclein (α-syn),55.6 ± 3.2%
same,remaining activity at 100 µM,[3],90.2 ± 2.7%
"O=C(CCl)Nc1nsc2ccc([N+](=O)[O-])cc12 [Compound 11, 2-chloro-N-(5-nitro-1,2-benzothiazol-3-yl)acetamide]","ThT a-Syn (%), maximum thioflavin T (ThT) intensity in percentage",α-synuclein (α-syn),45.3 ± 12.9%
same,remaining activity at 100 µM,α-synuclein (α-syn),45.3 ± 12.9%
same,remaining activity at 100 µM,[3],59.7 ± 2.6%
"CS(=O)(=O)N(c1nsc2ccc([N+](=O)[O-])cc12)S(C)(=O)=O [Compound 12, N-methanesulfonyl-N-(5-nitro-1,2-benzothiazol-3-yl)methanesulfonamide]",remaining activity at 100 µM,α-synuclein (α-syn),> 100%
same,remaining activity at 100 µM,[3],63 ± 17.4%
